This experiment concerns the target T1, Protein tyrosine phosphatase 1B (PTP1B) (Homo sapiens, UniProt P18031).
T1 sequence (P18031 1-301): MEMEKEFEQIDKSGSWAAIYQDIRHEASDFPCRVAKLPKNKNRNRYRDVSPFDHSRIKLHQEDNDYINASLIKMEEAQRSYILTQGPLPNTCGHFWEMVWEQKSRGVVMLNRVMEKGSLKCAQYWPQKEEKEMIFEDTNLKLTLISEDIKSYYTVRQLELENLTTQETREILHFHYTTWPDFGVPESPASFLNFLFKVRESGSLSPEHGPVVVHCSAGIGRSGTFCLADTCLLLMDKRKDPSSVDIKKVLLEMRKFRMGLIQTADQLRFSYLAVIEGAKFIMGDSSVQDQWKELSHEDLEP

The term Km denotes the concentration of substrate that gives half-maximal velocity. Regarding `O=[N+]([O-])c1ccc(OP(=O)(O)O)cc1` [pNPP, p-nitrophenyl phosphate], the Km stood at 2.8 ± 0.1 mM.

Values taken from article PMC5292209 (Biochemistry, 2016).
